Tested on: JeKo-1
Assay: Antiproliferative activity against human JeKo-1 cells assessed as reduction in cell viability by Cell-Titer Glo luminescent assay
Assay type: functional, cell-based

Question: CC[C@@]1(O)C(=O)OCc2c1cc1n(c2=O)Cc2c-1nc1cc(F)c(C)c3c1c2[C@@H](NC(=O)C(C)(O)CO)CC3 (stereo partly specified) was tested. Which EC50 did it give?
Answer: 1.2 nM

Question: CC[C@@]1(O)C(=O)OCc2c1cc1n(c2=O)Cc2c-1nc1cc(F)c(C)c3c1c2[C@@H](NC(=O)C(F)(F)C(C)O)CC3 (stereo partly specified) was tested. Which EC50 did it give?
Answer: 1.6 nM

Question: CC[C@@]1(O)C(=O)OCc2c1cc1n(c2=O)Cc2c-1nc1cc(F)c(C)c3c1c2[C@@H](NC(=O)C(C)(N)C(F)(F)F)CC3 (stereo partly specified) was tested. Which EC50 did it give?
Answer: 1.6 nM

Question: Which EC50 does the source give for CC[C@@]1(O)C(=O)OCc2c1cc1n(c2=O)Cc2c-1nc1cc(F)c(C)c3c1c2[C@@H](NC(=O)C(F)CO)CC3 (stereo partly specified) here?
Answer: 1.5 nM

Question: How did the EC50 turn out when CC[C@@]1(O)C(=O)OCc2c1cc1n(c2=O)Cc2c-1nc1cc(F)c(C)c3c1c2[C@@H](NC(=O)[C@@H](O)CO)CC3 was run?
Answer: 1.4 nM

Question: With CC[C@@]1(O)C(=O)OCc2c1cc1n(c2=O)Cc2c-1nc1cc(F)c(C)c3c1c2[C@@H](NC(=O)[C@H](O)CCO)CC3 as the compound, how does the EC50 read?
Answer: 1.4 nM

Source: ChEMBL document CHEMBL5634199, “Novel Exatecan-Derived Topoisomerase-1 Inhibitors for Treating Cancer” (ACS Med Chem Lett, 2024)
